Values of other authors, collected in patent publication US20150031700A1, “Methods of Treating Cutaneous Flushing Using Selective Alpha-2-adrenergic Receptor Agonists” (GALDERMA LABORATORIES INC., priority 2003, published 2015).

Legend:
α2 adrenergic receptor [1] = settings: α2 vs α1 adrenergic receptor, compared with clonidine
α2 adrenergic receptor [2] = settings: compared with clonidine; Burke et al., 1996
[3] = toxicity studies; Walters, 1996

Compound: Brc1c(NC2=NCCN2)ccc2nccnc12 [brimonidine]
- selectivity for the α2 adrenergic receptor relative to clonidine (α2 adrenergic receptor [1]): 7-12 fold

Compound: brimonidine tartrate
- α2 adrenergic receptor activity relative to clonidine (α2 adrenergic receptor [2]): 10 fold
- oncogenic or teratogenic activity [3]: no oncogenic or teratogenic activity
- toxicity [3]: nontoxic
